Measurements as given in PubChem BioAssay AID248 (DTP/NCI, 2004).
“And” between values parts separate entries of the source, which are not always exact repeats. Equal values may be shown once. Inconclusive results and toxic doses are left out. No stated cut-off is given here; in the data, active means T/C of 150% or more; inactive means T/C below 125%.

Test system: L1210 leukemia ip in BDF1 mice, survival T/C
Assay: NCI In Vivo Anticancer Drug Screen. Data for tumor model L1210 Leukemia (intraperitoneal) in B6D2F1 (BDF1) mice
Settings: endpoint: mean survival time, higher = longer survival
Method in brief: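 Value reflects the ratio of survival in compound-treated mice to survival in vehicle-treated controls, with both groups carrying the same transplanted tumor.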

[1] = dose: 50.0 mg/kg/injection, schedule: Q01DX009 (ip), vehicle: Klucel (hydroxypropylcellulose) (HPC)
[2] = dose: 100.0 mg/kg/injection, schedule: Q01DX009 (ip), vehicle: Klucel (hydroxypropylcellulose) (HPC)
[3] = dose: 200.0 mg/kg/injection, schedule: Q01DX009 (ip), vehicle: Klucel (hydroxypropylcellulose) (HPC)
[4] = dose: 100.0 mg/kg/injection, schedule: Q01DX009 (ip), vehicle: saline
[5] = dose: 200.0 mg/kg/injection, schedule: Q01DX009 (ip), vehicle: saline
[6] = dose: 400.0 mg/kg/injection, schedule: Q01DX009 (ip), vehicle: saline
[7] = dose: 100.0 mg/kg/injection, schedule: Q04DX003 (ip), vehicle: saline
[8] = dose: 200.0 mg/kg/injection, schedule: Q04DX003 (ip), vehicle: saline
[9] = dose: 400.0 mg/kg/injection, schedule: Q04DX003 (ip), vehicle: saline
[10] = dose: 50.0 mg/kg/injection, schedule: Q01DX009 (ip), vehicle: saline
[11] = dose: 100.0 mg/kg/injection, schedule: Q04DX003 (ip), vehicle: saline with Tween-80
[12] = dose: 200.0 mg/kg/injection, schedule: Q04DX003 (ip), vehicle: saline with Tween-80
[13] = dose: 100.0 mg/kg/injection, schedule: Q01DX001 (ip), vehicle: saline
[14] = dose: 200.0 mg/kg/injection, schedule: Q01DX001 (ip), vehicle: saline
[15] = dose: 400.0 mg/kg/injection, schedule: Q01DX001 (ip), vehicle: saline
[16] = dose: 400.0 mg/kg/injection, schedule: Q01DX009 (ip), vehicle: Klucel (hydroxypropylcellulose) (HPC)

Measured: T/C

COC(=O)c1c(C(=O)N(C)C)n[nH]c1C1OCC2OC(C)(C)OC21 (stereo not given)
inactive: dose: 100.0 mg/kg/injection, schedule: Q01DX005 (ip), vehicle: saline 100 % of control | dose: 200.0 mg/kg/injection, schedule: Q01DX005 (ip), vehicle: saline 100 % of control

Cc1nccnc1Sc1ccc(Br)cc1
inactive: [1] 106 % of control | [2] 113 % of control | [3] 106 % of control

O=C(c1ccccc1)C(O)(CC(c1ccccc1)[P+](c1ccccc1)(c1ccccc1)c1ccccc1)c1ccccc1 (stereo not given)
inactive: dose: 1.75 mg/kg/injection, schedule: Q01DX009 (ip), vehicle: saline 93 % of control | dose: 3.5 mg/kg/injection, schedule: Q01DX009 (ip), vehicle: saline 93 % of control | dose: 6.25 mg/kg/injection, schedule: Q01DX009 (ip), vehicle: Klucel (hydroxypropylcellulose) (HPC) 102 % of control | dose: 12.5 mg/kg/injection, schedule: Q01DX009 (ip), vehicle: Klucel (hydroxypropylcellulose) (HPC) 107 % of control | dose: 400.0 mg/kg/injection, schedule: Q01DX001 (ip), vehicle: saline with Tween-80 87 % of control

CCOC(=O)CP(=O)(OC)c1ccccc1 (stereo not given)
inactive: [4] 97 % of control | [5] 120 % of control | [6] 101 % of control

CC1C(C)(C)P(=O)(SCc2ccccc2)C1(C)C (stereo not given)
inactive: [7] 94 % of control | [8] 103 % of control | [9] 100 % of control

CC/C=C(\C)C1(CC)C(=O)NC(=O)NC1=O
inactive: dose: 75.0 mg/kg/injection, schedule: Q01DX001 (ip), vehicle: saline 102 % of control | dose: 150.0 mg/kg/injection, schedule: Q01DX001 (ip), vehicle: saline 95 % of control

COC(=O)C(N)Cc1ccc(OC(c2ccccc2)(c2ccccc2)c2ccccc2)cc1 (stereo not given)
inactive: [10] 101 % of control | [4] 103 % of control | [5] 100 % of control | [6] 100 % of control

O=C(O)C1Cc2ccccc2CN1 (stereo not given)
inactive: dose: 25.0 mg/kg/injection, schedule: Q01DX009 (ip), vehicle: saline with Tween-80 95 % of control | dose: 50.0 mg/kg/injection, schedule: Q01DX009 (ip), vehicle: saline with Tween-80 98 % of control | dose: 100.0 mg/kg/injection, schedule: Q01DX009 (ip), vehicle: saline with Tween-80 96 % of control and 106 % of control

O=C(O)CC1(C(=O)O)CC2(Cl)C(Cl)=C(Cl)C1(Cl)C2(Cl)Cl (stereo not given)
inactive: [11] 107 % of control | [12] 112 % of control

Nc1ccc2c(c1[N+](=O)[O-])C(=O)c1ccccc1C2=O
inactive: [13] 92 % of control | [14] 95 % of control | [15] 97 % of control

O=c1c2c3ccccc3c(=O)c=2c2ccccc12
inactive: dose: 100.0 mg/kg/injection, schedule: Q01DX001 (ip), vehicle: Klucel (hydroxypropylcellulose) (HPC) 98 % of control | dose: 200.0 mg/kg/injection, schedule: Q01DX001 (ip), vehicle: Klucel (hydroxypropylcellulose) (HPC) 103 % of control

CC12CC(C3(O)C(=O)Nc4ccccc43)C(=O)CC1CCC1C2CCC2(C)C(OC(=O)c3ccccc3)CCC12 (stereo not given)
inactive: [1] 93 % of control | [2] 101 % of control | [3] 101 % of control

Cc1ccc(NC(=O)C(=O)Nc2ccc(C)cc2)cc1
inactive: [2] 90 % of control | dose: 100.0 mg/kg/injection, schedule: Q04DX003 (ip), vehicle: other 93 % of control | [3] 89 % of control | dose: 200.0 mg/kg/injection, schedule: Q04DX003 (ip), vehicle: other 92 % of control | [16] 90 % of control | dose: 400.0 mg/kg/injection, schedule: Q04DX003 (ip), vehicle: other 89 % of control

C=CCNC(=S)Nc1cc(Cl)ccc1OC
inactive: [2] 90 % of control | dose: 100.0 mg/kg/injection, schedule: Q04DX003 (ip), vehicle: Klucel (hydroxypropylcellulose) (HPC) 94 % of control | dose: 200.0 mg/kg/injection, schedule: Q04DX003 (ip), vehicle: Klucel (hydroxypropylcellulose) (HPC) 92 % of control | [16] 86 % of control | dose: 400.0 mg/kg/injection, schedule: Q04DX003 (ip), vehicle: Klucel (hydroxypropylcellulose) (HPC) 94 % of control

OC1C(O)C(O)C2(CO2)C(O)C1O (stereo not given)
inactive: dose: 600.0 mg/kg/injection, schedule: Q01DX Z (ip), vehicle: saline 112 % of control

C/C=C1/C[C@@H](C)[C@@](C)(O)C(=O)OCC2=CC[N+]3([O-])CC[C@@H](OC1=O)[C@@H]23 (stereo not given in full)
inactive: dose: 20.0 mg/kg/injection, schedule: Q01DX015 (ip), vehicle: saline 98 % of control | dose: 30.0 mg/kg/injection, schedule: Q01DX015 (ip), vehicle: saline 96 % of control | dose: 40.0 mg/kg/injection, schedule: Q01DX015 (ip), vehicle: saline 102 % of control

CCCC(N=Cc1ccccc1O)C(=O)O.CCCC(N=Cc1ccccc1O)C(=O)O.[Fe] (stereo not given)
inactive: dose: 25.0 mg/kg/injection, schedule: Q01DX009 (ip), vehicle: saline 95 % of control | dose: 25.0 mg/kg/injection, schedule: Q04DX003 (ip), vehicle: saline 98 % of control | [10] 93 % of control | dose: 50.0 mg/kg/injection, schedule: Q04DX003 (ip), vehicle: saline 98 % of control | [7] 96 % of control and 98 % of control

Brc1ccc(C2=CSC3=NCCN23)cc1
inactive: dose: 25.0 mg/kg/injection, schedule: Q04DX003 (ip), vehicle: Klucel (hydroxypropylcellulose) (HPC) 96 % of control | dose: 50.0 mg/kg/injection, schedule: Q04DX003 (ip), vehicle: Klucel (hydroxypropylcellulose) (HPC) 96 % of control

CCCCCC(C)(O)CC (stereo not given)
inactive: [13] 93 % of control | [14] 102 % of control | [15] 96 % of control

O=S(=O)(c1ccc(Cl)cc1)c1ccc(Cl)cc1
inactive: [4] 91 % of control | [11] 102 % of control | [7] 104 % of control | [5] 95 % of control | [12] 107 % of control | [8] 95 % of control | [6] 93 % of control | dose: 400.0 mg/kg/injection, schedule: Q04DX003 (ip), vehicle: saline with Tween-80 95 % of control | [9] 106 % of control

CCCCCCCCCCCCCCCC[N+](C)(CCO)Cc1ccccc1 (stereo not given)
inactive: dose: 12.5 mg/kg/injection, schedule: Q04DX002 (ip), vehicle: saline with Tween-80 93 % of control

O=C1NCCN1
inactive: [4] 101 % of control | dose: 100.0 mg/kg/injection, schedule: Q04DX002 (ip), vehicle: saline 103 % of control | [7] 104 % of control | [5] 106 % of control | dose: 200.0 mg/kg/injection, schedule: Q04DX002 (ip), vehicle: saline 107 % of control | [8] 101 % of control | [6] 106 % of control | dose: 400.0 mg/kg/injection, schedule: Q04DX002 (ip), vehicle: saline 107 % of control | [9] 95 % of control

COC1=CCC23C(=O)C=CC(=O)C2(C1)C(=O)c1ccccc1C3=O (stereo not given)
inactive: dose: 3.12 mg/kg/injection, schedule: Q01DX005 (ip), vehicle: saline with Tween-80 110 % of control | dose: 6.25 mg/kg/injection, schedule: Q01DX005 (ip), vehicle: saline with Tween-80 103 % of control | dose: 12.5 mg/kg/injection, schedule: Q01DX005 (ip), vehicle: saline with Tween-80 97 % of control

O=C(Cc1ccccc1)NCCCl
inactive: dose: 100.0 mg/kg/injection, schedule: Q04DX002 (ip), vehicle: saline with Tween-80 103 % of control | dose: 200.0 mg/kg/injection, schedule: Q04DX002 (ip), vehicle: saline with Tween-80 103 % of control | dose: 400.0 mg/kg/injection, schedule: Q04DX002 (ip), vehicle: saline with Tween-80 105 % of control
